In patent US9163021B2, “Pyrrolo[3,2-c]pyridine tropomyosin-related kinase inhibitors” (Pfizer Limited, priority 2012, dated 2015):
pIC50: −log10 of the molar value.

Biological target: TRKA (Homo sapiens (Human), UniProt P04629)
Assay: Isolated TRK enzyme assay (HTRF KinEASE-TK), PV3144 TrkA enzyme assay
Assay type: biochemical
Conditions: arithmetic mean where more than one reading
Summary of the method: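 His-tagged TrkA cytoplasmic domain preactivated with ATP 20 min, then with compound 20 min at room temperature before 1 µM final biotin-TK substrate; HTRF 665/620 nm read.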

TRKA, sequence (P04629 441-796): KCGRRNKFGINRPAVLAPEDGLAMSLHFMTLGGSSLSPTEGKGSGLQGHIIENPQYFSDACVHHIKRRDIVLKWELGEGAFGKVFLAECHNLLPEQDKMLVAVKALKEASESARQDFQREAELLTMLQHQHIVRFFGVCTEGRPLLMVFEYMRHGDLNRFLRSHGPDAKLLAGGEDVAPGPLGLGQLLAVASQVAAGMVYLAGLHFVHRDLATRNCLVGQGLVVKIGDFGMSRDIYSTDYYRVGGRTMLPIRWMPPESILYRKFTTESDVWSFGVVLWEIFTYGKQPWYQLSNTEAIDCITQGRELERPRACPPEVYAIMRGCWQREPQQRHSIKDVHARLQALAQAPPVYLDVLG

| Structure (SMILES) | pIC50 |
| --- | --- |
| Cc1oc(C2CC2)nc1CC(=O)Nc1cc(C(=O)c2cn(C(C)C)c3ccncc23)ccn1 [Example 78, 2-(2-cyclopropyl-5-methyl-1,3-oxazol-4-yl)-N-(4-{[1-(propan-2-yl)-1H-pyrrolo[3,2-c]pyridin-3-yl]carbonyl}pyridin-2-yl)acetamide] | 7.80 |
| CC(C)n1cc(C(=O)c2ccnc(NC(=O)Cc3nc(C4CC4)oc3C3CC3)c2)c2cnccc21 [Example 79, 2-(2,5-dicyclopropyl-1,3-oxazol-4-yl)-N-(4-{[1-(propan-2-yl)-1H-pyrrolo[3,2-c]pyridin-3-yl]carbonyl}pyridin-2-yl)acetamide] | 7.58 |
| COCc1nc(CC(=O)Nc2cc(C(=O)c3cn(C(C)C)c4ccncc34)ccn2)c(C2CC2)o1 [Example 80, 2-[5-cyclopropyl-2-(methoxymethyl)-1,3-oxazol-4-yl]-N-(4-{[1-(propan-2-yl)-1H-pyrrolo[3,2-c]pyridin-3-yl]carbonyl}pyridin-2-yl)acetamide] | 6.45 |
| CC(C)n1cc(C(=O)c2ccnc(NC(=O)Cc3ccc(F)cn3)c2)c2cnccc21 [Example 81, 2-(5-fluoropyridin-2-yl)-N-(4-{[1-(propan-2-yl)-1H-pyrrolo[3,2-c]pyridin-3-yl]carbonyl}pyridin-2-yl)acetamide] | 7.17 |
| CC(C)n1cc(C(=O)c2ccnc(NC(=O)Cc3ccc(Cl)cn3)c2)c2cnccc21 [Example 82, 2-(5-chloropyridin-2-yl)-N-(4-{[1-(propan-2-yl)-1H-pyrrolo[3,2-c]pyridin-3-yl]carbonyl}pyridin-2-yl)acetamide] | 8.21 |
| CC(C)n1cc(C(=O)c2cc(NC(=O)Cn3cc(C(F)(F)F)nn3)ccn2)c2cncc(F)c21 [Example 83, N-(2-{[7-fluoro-1-(propan-2-yl)-1H-pyrrolo[3,2-c]pyridin-3-yl]carbonyl}pyridin-4-yl)-2[4-(trifluoromethyl)-1H-1,2,3-triazol-1-yl]acetamide] | 6.46 |
| CC(C)n1cc(C(=O)c2cc(NC(=O)Cc3ccc(Cl)cc3)ccn2)c2cncc(F)c21 [Example 85, 2-(4-chlorophenyl)-N-(2-{[7-fluoro-1-(propan-2-yl)-1H-pyrrolo[3,2-c]pyridin-3-yl]carbonyl}pyridin-4-yl)acetamide] | 7.63 |
| CC(C)n1cc(C(=O)c2cncc(NC(=O)Cn3cc(C(F)(F)F)nn3)c2)c2cncc(F)c21 [Example 87, N-(5-{[7-fluoro-1-(propan-2-yl)-1H-pyrrolo[3,2-c]pyridin-3-yl]carbonyl}pyridin-3-yl)-2-[4-(trifluoromethyl)-1H-1,2,3-triazol-1-yl]acetamide] | 7.54 |
| CC(C)n1cc(C(=O)c2cncc(NC(=O)Cc3ccc(F)cn3)c2)c2cncc(F)c21 [Example 88, N-(5-{[7-fluoro-1-(propan-2-yl)-1H-pyrrolo[3,2-c]pyridin-3-yl]carbonyl}pyridin-3-yl)-2-(5-fluoropyridin-2-yl)acetamide] | 7.16 |
| CC(C)n1cc(C(=O)c2cncc(NC(=O)Cn3cc(C4CC4)nn3)c2)c2cncc(F)c21 [Example 89, 2-(4-cyclopropyl-1H-1,2,3-triazol-1-yl)-N-(5-{[7-fluoro-1-(propan-2-yl)-1H-pyrrolo[3,2-c]pyridin-3-yl]carbonyl}pyridin-3-yl)acetamide] | 7.08 |
| CC(C)n1cc(C(=O)c2cncc(NC(=O)Cn3ccc(C4CC4)n3)c2)c2cncc(F)c21 [Example 90, 2-(3-cyclopropyl-1H-pyrazol-1-yl)-N-(5-{[7-fluoro-1-(propan-2-yl)-1H-pyrrolo[3,2-c]pyridin-3-yl]carbonyl}pyridin-3-yl)acetamide] | 7.71 |
| CC(C)n1cc(C(=O)c2cncc(NC(=O)Cn3cc(C4CC4)cn3)c2)c2cncc(F)c21 [Example 91, 2-(4-cyclopropyl-1H-pyrazol-1-yl)-N-(5-{[7-fluoro-1-(propan-2-yl)-1H-pyrrolo[3,2-c]pyridin-3-yl]carbonyl}pyridin-3-yl)acetamide] | 7.82 |
| CC(C)(CO)n1cc(C(=O)c2cncc(NC(=O)Cc3ccc(C#N)cc3)c2)c2cncc(F)c21 [Example 92, 2-(4-cyanophenyl)-N-(5-{[7-fluoro-1-(1-hydroxy-2-methylpropan-2-yl)-1H-pyrrolo[3,2-c]pyridin-3-yl]carbonyl}pyridin-3-yl)acetamide] | 7.40 |
| CC(C)(CO)n1cc(C(=O)c2cncc(NC(=O)Cc3ccc(F)cn3)c2)c2cncc(F)c21 [Example 93, N-(5-{[7-fluoro-1-(1-hydroxy-2-methylpropan-2-yl)-1H-pyrrolo[3,2-c]pyridin-3-yl]carbonyl}pyridin-3-yl)-2-(5-fluoropyridin-2-yl)acetamide] | 7.41 |
| CC(C)(CO)n1cc(C(=O)c2cncc(NC(=O)Cn3cc(C(F)(F)F)nn3)c2)c2cncc(F)c21 [Example 94, N-(5-{[7-fluoro-1-(1-hydroxy-2-methylpropan-2-yl)-1H-pyrrolo[3,2-c]pyridin-3-yl]carbonyl}pyridin-3-yl)-2-[4-(trifluoromethyl)-1H-1,2,3-triazol-1-yl]acetamide] | 7.70 |
| CC(C)(CO)n1cc(C(=O)c2cncc(NC(=O)Cn3ccc(C(F)(F)F)n3)c2)c2cncc(F)c21 [Example 95, N-(5-{[7-fluoro-1-(1-hydroxy-2-methylpropan-2-yl)-1H-pyrrolo[3,2-c]pyridin-3-yl]carbonyl}pyridin-3-yl)-2-[3-(trifluoromethyl)-1H-pyrazol-1-yl]acetamide] | 8.53 |
| CC(C)n1cc(C(=O)c2ccnc(NC(=O)Cc3cccc(Cl)c3)c2)c2cnccc21 [Example 96, 2-(3-chlorophenyl)-N-(4-{[1-(propan-2-yl)-1H-pyrrolo[3,2-c]pyridin-3-yl]carbonyl}pyridin-2-yl)acetamide] | 7.86 |
| CC(C)n1cc(C(=O)c2ccnc(NC(=O)Cc3cccc(CC(C)(C)O)c3)c2)c2cnccc21 [Example 97, 2-[3-(2-hydroxy-2-methylpropyl)phenyl]-N-(4-{[1-(propan-2-yl)-1H-pyrrolo[3,2-c]pyridin-3-yl]carbonyl}pyridin-2-yl)acetamide] | 7.51 |
| CC(C)c1cn(CC(=O)Nc2cc(C(=O)c3cn(C(C)C)c4ccncc34)ccn2)nn1 [Example 98, N-(4-{[1-(propan-2-yl)-1H-pyrrolo[3,2-c]pyridin-3-yl]carbonyl}pyridin-2-yl)-2[4-(propan-2-yl)-1H-1,2,3-triazol-1-yl]acetamide] | 7.39 |
| CC(C)n1cc(C(=O)c2ccnc(NC(=O)Cn3cc(Cl)cn3)c2)c2cnccc21 [Example 99, 2-(4-chloro-1H-pyrazol-1-yl)-N-(4-{[1-(propan-2-yl)-1H-pyrrolo[3,2-c]pyridin-3-yl]carbonyl}pyridin-2-yl)acetamide] | 7.37 |
| CC(C)n1cc(C(=O)c2cncc(NC(=O)Cc3ccccc3Cl)c2)c2cnccc21 [Example 100, 2-(2-chlorophenyl)-N-(5-{[1-(propan-2-yl)-1H-pyrrolo[3,2-c]pyridin-3-yl]carbonyl}pyridin-3-yl)acetamide] | 5.63 |
| COc1ccc(CC(=O)Nc2cc(C(=O)c3cn(C(C)C)c4ccncc34)ccn2)cc1 [Example 101, 2-(4-methoxyphenyl)-N-(4-{[1-(propan-2-yl)-1H-pyrrolo[3,2-c]pyridin-3-yl]carbonyl}pyridin-2-yl)acetamide] | 7.29 |
| CC(C)n1cc(C(=O)c2ccnc(NC(=O)Cn3ccnc3)c2)c2cnccc21 [Example 102, 2-(1H-imidazol-1-yl)-N-(4-{[1-(propan-2-yl)-1H-pyrrolo[3,2-c]pyridin-3-yl]carbonyl}pyridin-2-yl)acetamide] | 5.13 |
